Literature values, collected in patent US20050154016A1, “Preventives for hiv infection” (priority 2002, published 2005).

Tested on: R5 HIV-1
Details: reported in non-patent document 18

## Cc1ccc(-c2ccc3c(c2)C=C(C(=O)Nc2ccc(C[N+](C)(C)C4CCOCC4)cc2)CCC3)cc1.[Cl-] [TAK-779]
  inhibitory effect against HIV-1 infection caused by R5 HIV-1: exhibits an inhibitory effect
